Test system: CHIKV
Assay type: cell-based, chikungunya virus

Hs_GUCY1B3_1 (sense AAGGGTCAAATGATCTACTTA; chemistry not given here) [reference compound]
Score_si2: -0.88

Hs_GUCY1B3_2 (sense ACCTAACATGGTGATCTGCAA; chemistry not given here) [reference compound]
Score_si1: -1.2

Hs_GUCY1B3_3 (sense CAAGACTTTCTTCTAGATATA; chemistry not given here) [reference compound]
Score_si3: -0.83

Hs_HMGA1L4_1 (sense AAGCCTCAGCTCAAACTCAAA; chemistry not given here)
Score_si1: 2.38

Hs_HMGA1L4_2 (sense CTGGCTGGATGAAGACAGTAA; chemistry not given here)
Score_si4: 0.45

Hs_HMMR_2 (sense AAGTTAAGTCTTCGGAATCAA; chemistry not given here)
Score_si1: 2.42

Hs_HSPE1_4 (sense CTGAAATAAGTCACTATTGAA; chemistry not given here)
Score_si4: 1.81

Hs_HSPE1_6 (sense GAGGGAGTAATGGCAGGACAA; chemistry not given here)
Score_si1: 2.37

Hs_HTATIP_8 (sense CACCACATTGCCTGTCCTCTA; chemistry not given here)
Score_si1: 2.67

Hs_INTS8_2 (sense CTGGGAATTAAAGACAATTTA; chemistry not given here)
Score_si2: 2.65

Hs_IQGAP1_1 (sense CTGGGAGATAATGCCCACTTA; chemistry not given here)
Score_si2: 1.04

Hs_IQGAP1_3 (sense AAGGCATATCAAGATCGGTTA; chemistry not given here)
Score_si4: 0.77

Hs_IQGAP1_4 (sense TGCCCACTTAAGCATCATTAA; chemistry not given here)
Score_si3: 0.98

Hs_IRAK1_5 (sense CCGGGCAATTCAGTTTCTACA; chemistry not given here)
Score_si4: 1.36

Hs_IRAK1_6 (sense TCCCATCGCCATGCAGATCTA; chemistry not given here)
Score_si3: 1.57

Hs_IRAK1_10 (sense AAGCAAGTCAGGTTTCATGTA; chemistry not given here)
Score_si2: 1.62

Hs_ITGB4BP_1 (sense CTGGATCTATCATTACTGCAA; chemistry not given here)
Score_si3: 1.14

Hs_ITGB4BP_2 (sense AAGCTACTGTGTCTTCAGCAA; chemistry not given here)
Score_si4: 1.08

Hs_ITGB4BP_3 (sense CAGGGAGACAGAAGAAATTCT; chemistry not given here)
Score_si1: 1.54

Hs_KAZALD1_1 (sense CCGGAGGAGCTGCTTTCTGAA; chemistry not given here)
Score_si2: 1.12

Hs_KAZALD1_2 (sense ACAGGGCTAGGCACCAATAAA; chemistry not given here)
Score_si1: 1.74

Hs_KCTD10_1 (sense AAGGCTTTGTTTAGGGATCAA; chemistry not given here)
Score_si1: 2.04

Hs_KIAA0252_2 (sense AAGGAATTATCTATTAAAGAA; chemistry not given here)
Score_si1: 2.74

Hs_KIAA0674_1 (sense CCGGAAACAACTGGAACTCAA; chemistry not given here)
Score_si1: 1.96

Hs_KIAA0674_2 (sense CCCGGCAACATAACACTGAAA; chemistry not given here)
Score_si2: 1.52

Hs_KIAA0947_2 (sense CTGGCAGTTTATTGCTCTTAA; chemistry not given here)
Score_si1: 2.71

Hs_KIAA1012_2 (sense CAGGGTTGCTATTTACTTAAA; chemistry not given here)
Score_si1: 2.22

Hs_KRTCAP2_5 (sense CTCGCTCACTGCCTTCAATAA; chemistry not given here)
Score_si3: 1.15

Hs_KRTCAP2_6 (sense CTGACCCTGAATGTTCAATAA; chemistry not given here)
Score_si1: 1.71

Hs_KRTHA2_1 (sense CAGATGGAGGAGCTTAACCAA; chemistry not given here)
Score_si1: 1.15

Hs_KRTHA2_2 (sense ATGGTTGTGAACATTGATAAT; chemistry not given here)
Score_si2: 1.02

Hs_LBX1_1 (sense CACCAGATCTATGAATTGGAA; chemistry not given here)
Score_si3: 1.41

Hs_LBX1_2 (sense CAAGGCCGAGATGACTTCCAA; chemistry not given here)
Score_si1: 2

Hs_LIP8_1 (sense CTGGACTTTGCTAAAGCAGAA; chemistry not given here)
Score_si4: 0.62

Hs_LIP8_2 (sense AAGCATATCTTTGAGATGGAA; chemistry not given here)
Score_si1: 2.14

Hs_LOC283377_3 (sense CAGGCCTTTCTCAGACTGTAT; chemistry not given here)
Score_si1: 2.72

Hs_LOC283377_7 (sense AAAGCTAGGCATACAGCCAAA; chemistry not given here)
Score_si3: 0.76

Hs_LOC407835_4 (sense CAGGGAGATCAGCATCTGCAT; chemistry not given here)
Score_si2: 0.79

Hs_LOC407835_6 (sense CTGCTGGACTATATTGTGAAA; chemistry not given here)
Score_si3: 0.74

Hs_LOH12CR1_1 (sense CCCGATGTCATCAAGTTGCAA; chemistry not given here)
Score_si1: 2.42

Hs_LOXL2_1 (sense CCGGAGTTGCCTGCTCAGAAA; chemistry not given here)
Score_si2: 1.33

Hs_LOXL2_3 (sense CAGGCAATGAGAAGTCCATTA; chemistry not given here)
Score_si1: 2.38

Hs_LOXL2_4 (sense CTCGAGATTCCGGAAAGCATA; chemistry not given here)
Score_si4: 0.97

Hs_LRIG2_1 (AGGGATGTCATTGTAAATATA; chemistry not given here) [reference compound]
Score_si1: -2.53

Hs_LRP6_2 (CTGGATTGTTATCCGACTGAA; chemistry not given here)
Score_si2: 1.63

Hs_LRP6_7 (CTGGATGGTTCTGACCGTGTA; chemistry not given here)
Score_si1: 1.93

Hs_LTBP3_1 (CCGGGACAGATCTCAGCAGAA; chemistry not given here)
Score_si2: 1.9

Hs_LTBP3_2 (CCGCTACTGCGTGGATGTGAA; chemistry not given here)
Score_si4: 1.32

Hs_MAP2K2_9 (TTCCAGGAGTTTGTCAATAAA; chemistry not given here)
Score_si4: 0.51

Hs_MAP3K14_1 (CAGGACTCACGTAGCATTAAA; chemistry not given here)
Score_si2: 1.59

Hs_MAP3K14_5 (CACATGCATGTGACTCCTCAA; chemistry not given here)
Score_si4: 0.74

Hs_MAP3K14_6 (TACCTAGTGCATGCTCTGCAA; chemistry not given here)
Score_si3: 1.59

Hs_MAZ_2 (CCGCGACGTCTACCACCTGAA; chemistry not given here)
Score_si1: 2.43

Hs_MDS032_1 (TCGAATCATGCCTAAACTCAA; chemistry not given here)
Score_si4: 1.39

Hs_MGC2803_1 (TGCGATGTACATAACTATTTA; chemistry not given here)
Score_si4: -0.65

Hs_MGC2803_2 (CGGGAACAAACTAGCCCTCAA; chemistry not given here)
Score_si1: 2.43

Hs_MGC11102_1 (TAGCGTGGCTTTAAACATATA; chemistry not given here)
Score_si2: 1.11

Hs_MGC11102_2 (CAGGTGGTTTGTTCTTTCTTA; chemistry not given here)
Score_si1: 1.25

Hs_MGC13138_1 (CTGGCATTTCCCGCTCATTTA; chemistry not given here) [reference compound]
Score_si1: -2.19

Hs_MGC21830_1 (CCGGAGACAGCGGCTGATTTA; chemistry not given here) [reference compound]
Score_si1: -1.05

Hs_MGC21830_2 (CAGCTGGGCGGTGCTGTTCGA; chemistry not given here) [reference compound]
Score_si2: -1.02

Hs_MRPS12_2 (CTGCTGGGACAAGACACTGTA; chemistry not given here)
Score_si2: 1.92

Hs_MRPS12_7 (TTCCATCAGGACCACTATTAA; chemistry not given here)
Score_si1: 1.99

Hs_NAG_1 (CAGAGGAAGATTGAAAGTGAA; chemistry not given here)
Score_si2: 2.12

Hs_NAG_2 (CAGACAGAAATTCTTTATCAA; chemistry not given here)
Score_si1: 2.66

Hs_NCOA1_1 (CAGCGGGAACTGTACAGTCAA; chemistry not given here)
Score_si2: 1.96

Hs_NCOA1_14 (CTCCTAATATTTCGACATTAA; chemistry not given here)
Score_si1: 2.06

Hs_NDUFA2_2 (TCCACTGAGGATTAAGAGCAA; chemistry not given here)
Score_si1: 2.51

Hs_NDUFA7_1 (CAGGGAGAATGTGACCTAATT; chemistry not given here) [reference compound]
Score_si1: -2.23

Hs_NPAT_1 (ACCAATGCACATATAATTTAA; chemistry not given here) [reference compound]
Score_si2: -1.26

Hs_NPAT_2 (AAGGCACATCTTCAAACAATA; chemistry not given here) [reference compound]
Score_si1: -1.61

Hs_NPEPL1_1 (CTGATTTATAGGGCAAGAGAA; chemistry not given here)
Score_si4: 1.11

Hs_NPEPL1_2 (CACCTTCCTCGAGGAGATTAA; chemistry not given here)
Score_si2: 1.71

Hs_NPEPL1_3 (CTGCAATGAGATGAACACCGA; chemistry not given here)
Score_si1: 2.35

Hs_NPEPL1_4 (CAGAATTCACTTGAGGTTCAA; chemistry not given here)
Score_si3: 1.44

Hs_NRCAM_1 (CAGGCCTTCAGTACAAAGTTA; chemistry not given here)
Score_si3: 0.75

Hs_NRCAM_2 (AACGCTCATAATTAACATCAT; chemistry not given here)
Score_si4: 0.35

Hs_NRCAM_3 (GACGTTTGGTTTAAAGAATTA; chemistry not given here)
Score_si2: 0.93

Hs_NRCAM_4 (AGGGTGGTAAATATCCAGTTA; chemistry not given here)
Score_si1: 1.08

Source: paper PMC4865845, “A human genome-wide loss-of-function screen identifies effective chikungunya antiviral drugs” (Nature Communications, 2016)
